Results reported in PubChem BioAssay (NCI).
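The compound was tested at five concentrations on cells cultured in 96-well plates, with a 48-hour exposure period. TGI denotes the concentration required for complete inhibition of growth.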

Assays:
Assay in all cases: growth of human tumour cells (NCI), 48 h
786-0 renal = test system: 786-0 renal
A498 renal = test system: A498 renal
A549 NSCLC = test system: A549 NSCLC
ACHN renal = test system: ACHN renal
BT-549 breast = test system: BT-549 breast
CAKI-1 renal = test system: CAKI-1 renal
CCRF-CEM leukemia = test system: CCRF-CEM leukemia
COLO 205 colon = test system: COLO 205 colon
DU-145 prostate = test system: DU-145 prostate
EKVX NSCLC = test system: EKVX NSCLC
HCC-2998 colon = test system: HCC-2998 colon
HCT-116 colon = test system: HCT-116 colon
HCT-15 colon = test system: HCT-15 colon
HL-60(TB) leukemia = test system: HL-60(TB) leukemia
HOP-62 NSCLC = test system: HOP-62 NSCLC
HOP-92 NSCLC = test system: HOP-92 NSCLC
HS 578T breast = test system: HS 578T breast
HT29 colon = test system: HT29 colon
IGROV1 ovarian = test system: IGROV1 ovarian
K-562 leukemia = test system: K-562 leukemia
KM12 colon = test system: KM12 colon
LOX IMVI melanoma = test system: LOX IMVI melanoma
M14 melanoma = test system: M14 melanoma
MALME-3M melanoma = test system: MALME-3M melanoma
MCF7 breast = test system: MCF7 breast
MDA-MB-231 breast = test system: MDA-MB-231 breast
MDA-MB-435 = test system: MDA-MB-435
MOLT-4 leukemia = test system: MOLT-4 leukemia
NCI-H226 lung = test system: NCI-H226 lung
NCI-H23 lung = test system: NCI-H23 lung
NCI-H460 lung = test system: NCI-H460 lung
NCI-H522 lung = test system: NCI-H522 lung
NCI/ADR-RES ovarian = test system: NCI/ADR-RES ovarian
OVCAR-3 ovarian = test system: OVCAR-3 ovarian
OVCAR-4 ovarian = test system: OVCAR-4 ovarian
OVCAR-5 ovarian = test system: OVCAR-5 ovarian
OVCAR-8 ovarian = test system: OVCAR-8 ovarian
PC-3 prostate = test system: PC-3 prostate
RPMI-8226 leukemia = test system: RPMI-8226 leukemia
RXF 393 renal = test system: RXF 393 renal
SF-268 CNS = test system: SF-268 CNS
SF-295 CNS = test system: SF-295 CNS
SF-539 CNS = test system: SF-539 CNS
SK-MEL-2 melanoma = test system: SK-MEL-2 melanoma
SK-MEL-28 melanoma = test system: SK-MEL-28 melanoma
SK-MEL-5 melanoma = test system: SK-MEL-5 melanoma
SK-OV-3 ovarian = test system: SK-OV-3 ovarian
SN12C renal = test system: SN12C renal
SNB-19 CNS = test system: SNB-19 CNS
SNB-75 CNS = test system: SNB-75 CNS
SR leukemia = test system: SR leukemia
SW-620 colon = test system: SW-620 colon
T-47D breast = test system: T-47D breast
TK-10 renal = test system: TK-10 renal
U251 CNS = test system: U251 CNS
UACC-257 melanoma = test system: UACC-257 melanoma
UACC-62 melanoma = test system: UACC-62 melanoma
UO-31 renal = test system: UO-31 renal

Cc1ccc2c(c1)C1(C)OC(C=CC1=O)O2 (stereo not drawn) was tested, and the TGI (786-0 renal) was 0.822 µM, the TGI (A498 renal) was 13.4 µM and the TGI (A549 NSCLC) was 10.1 µM. The TGI (ACHN renal) was 1.73 µM, the TGI (BT-549 breast) was 1.57 µM and the TGI (CAKI-1 renal) was 1.49 µM. For the same compound, the TGI (CCRF-CEM leukemia) was 0.569 µM, the TGI (COLO 205 colon) was 1.43 µM and the TGI (DU-145 prostate) was 8.45 µM. The TGI (EKVX NSCLC) was 7.69 µM, the TGI (HCC-2998 colon) was 8.15 µM and the TGI (HCT-116 colon) was 0.652 µM. The TGI (HCT-15 colon) was 0.772 µM, the TGI (HL-60(TB) leukemia) was 0.998 µM and the TGI (HOP-62 NSCLC) was 12.2 µM. For the same compound, the TGI (HOP-92 NSCLC) was 1.48 µM, the TGI (HS 578T breast) was greater than 26.6 µM and the TGI (HT29 colon) was 0.684 µM. For the same compound, the TGI (IGROV1 ovarian) was 8.88 µM, the TGI (K-562 leukemia) was 0.902 µM and the TGI (KM12 colon) was 2.14 µM. The TGI (LOX IMVI melanoma) was 1.31 µM, the TGI (M14 melanoma) was 1.13 µM and the TGI (MALME-3M melanoma) was 1.32 µM. For the same compound, the TGI (MCF7 breast) was 6.09 µM, the TGI (MDA-MB-231 breast) was 0.745 µM and the TGI (MDA-MB-435) was 0.317 µM. The TGI (MOLT-4 leukemia) was 0.862 µM, the TGI (NCI-H226 lung) was 7.94 µM and the TGI (NCI-H23 lung) was 2.38 µM. For the same compound, the TGI (NCI-H460 lung) was 6.03 µM, the TGI (NCI-H522 lung) was 0.239 µM and the TGI (NCI/ADR-RES ovarian) was 0.0653 µM. For the same compound, the TGI (OVCAR-3 ovarian) was 1.16 µM, the TGI (OVCAR-4 ovarian) was 2.29 µM and the TGI (OVCAR-5 ovarian) was 4.46 µM. The TGI (OVCAR-8 ovarian) was 0.803 µM, the TGI (PC-3 prostate) was 3.81 µM and the TGI (RPMI-8226 leukemia) was 1.65 µM. It also gave a TGI (RXF 393 renal) of 1.56 µM, a TGI (SF-268 CNS) of 10.3 µM and a TGI (SF-295 CNS) of 11.9 µM. It also gave a TGI (SF-539 CNS) of 1.27 µM, a TGI (SK-MEL-2 melanoma) of 5.85 µM and a TGI (SK-MEL-28 melanoma) of 2.03 µM. It also gave a TGI (SK-MEL-5 melanoma) of 2.79 µM, a TGI (SK-OV-3 ovarian) of 12 µM and a TGI (SN12C renal) of 0.862 µM. It also gave a TGI (SNB-19 CNS) of 8.97 µM, a TGI (SNB-75 CNS) of 4.35 µM and a TGI (SR leukemia) of 1.09 µM. For the same compound, the TGI (SW-620 colon) was 1.05 µM, the TGI (T-47D breast) was 1.65 µM and the TGI (TK-10 renal) was 5.5 µM. It also gave a TGI (U251 CNS) of 0.549 µM, a TGI (UACC-257 melanoma) of 3.45 µM and a TGI (UACC-62 melanoma) of 3.6 µM. The TGI (UO-31 renal) was 2.36 µM.
